From publication PMC9091416 (RSC Advances, 2018) come the findings set out here.

Broadly, the IC50 is the concentration needed to halve the response being measured.

Holding throughout (test): cells
The test system of experiment [1] is DLD1 cells. It counts as cell-based. To be noted: Homo sapiens, DLD-1, read-out: IC50 (μM) ± SD (μM), DLD1.
Experiment [2] has as its system NCM460 cells. Type of experiment: cell-based. To be noted: Homo sapiens, NCM460, read-out: IC50 (μM) ± SD (μM), NCM460.
Experiment [3] relates to HCT-116 cells. It counts as cell-based, human.
Experiment [4] relates to RKO cells. It counts as cell-based. The conditions noted are these: Homo sapiens, read-out: IC50 (μM) ± SD (μM), RKO.

For the compound `CC(=O)OC[C@H]1OC(OC(C)=O)[C@H](n2cc(C(=O)NC3([As](O)O)C=CC=CC3)nn2)[C@@H](OC(C)=O)[C@@H]1OC(C)=O` (stereo partly drawn) [Compound 8, 1-(1-(1,3,4,6-tetra-O-acetyl-2-deoxy-D-glucopyranos-2-yl) -1H-1,2,3-triazole-4-carboxamido)phenyl arsonous acid], the IC50 in experiment [1] stood at 15 ± 2.72 µM; in experiment [2], 16.1 ± 2.21 µM; in experiment [3] (Homo sapiens, HCT-116, read-out: IC50 (μM) ± SD (μM), HCT-116) it was 17.7 ± 1.44 µM; in experiment [4], 4.57 ± 0.17 µM. In experiment [3], this compound had a Selectivity index of 0.91.
